Data: ChEMBL document CHEMBL5584201, “Amphiphilic tribasic galactosamines potentiate rifampicin in Gram-negative bacteria at low Mg++/Ca++concentrations” (Bioorg Med Chem Lett, 2024)

Legend:
Assay type in all cases: functional
[1] = system: Pseudomonas aeruginosa; assay: Antibacterial activity against Pseudomonas aeruginosa PAO1 in low salt containing media by Mueller-Hinton broth based assay
[2] = system: Acinetobacter baumannii; assay: Antibacterial activity against Acinetobacter baumannii ATCC 17978 in low salt containing media by Mueller-Hinton broth based assay
[3] = system: Escherichia coli; assay: Antibacterial activity against Escherichia coli ATCC 25922 in low salt containing media by Mueller-Hinton broth based assay
[4] = system: Pseudomonas aeruginosa; assay: Potentiation of rifampicin-induced antibacterial activity against Pseudomonas aeruginosa PAO1 assessed as rifampicin MIC in low salt containing media by Mueller-Hinton broth based assay
[5] = system: Acinetobacter baumannii; assay: Potentiation of rifampicin-induced antibacterial activity against Acinetobacter baumannii ATCC 17978 assessed as rifampicin MIC in low salt containing media by Mueller-Hinton broth based assay
[6] = system: Escherichia coli; assay: Potentiation of rifampicin-induced antibacterial activity against Escherichia coli ATCC 25922 assessed as rifampicin MIC in low salt containing media by Mueller-Hinton broth based assay
[7] = system: Pseudomonas aeruginosa; assay: Potentiation of rifampicin-induced antibacterial activity against Pseudomonas aeruginosa PAO1 assessed as fold change in rifampicin MIC in low salt containing media by Mueller-Hinton broth based assay
[8] = system: Acinetobacter baumannii; assay: Potentiation of rifampicin-induced antibacterial activity against Acinetobacter baumannii ATCC 17978 assessed as fold change in rifampicin MIC in low salt containing media by Mueller-Hinton broth based assay
[9] = system: Escherichia coli; assay: Potentiation of rifampicin-induced antibacterial activity against Escherichia coli ATCC 25922 assessed as fold change in rifampicin MIC in low salt containing media by Mueller-Hinton broth based assay

Row | SMILES | MIC [1] | MIC [2] | MIC [3] | MIC [4] | MIC [5] | MIC [6] | fold change (FC) [7] | fold change (FC) [8] | fold change (FC) [9]
1 | NC[C@H]1O[C@@H](OCCCc2ccccc2)[C@H](N)[C@@H](OCc2ccc3ccccc3c2)[C@H]1N | > 128 µg/mL | 128 µg/mL | 64 µg/mL | 16 µg/mL | 16 µg/mL | 16 µg/mL | 2 | 32 | 32
2 | CCCCCCCCO[C@@H]1O[C@H](CO)[C@H](N)[C@H](OCc2ccc3ccccc3c2)[C@H]1N | > 128 µg/mL | 32 µg/mL | 32 µg/mL | 16 µg/mL | 8 µg/mL | 8 µg/mL | 1 | 2 | 2
3 | CCCCCCO[C@@H]1O[C@H](CN)[C@H](N)[C@H](OCc2ccc3ccccc3c2)[C@H]1N | > 128 µg/mL | 128 µg/mL | 64 µg/mL | 16 µg/mL | 16 µg/mL | 16 µg/mL | 1 | 32 | 32
4 | CCCCCCCCO[C@@H]1O[C@H](CN)[C@H](N)[C@H](OCc2ccccc2)[C@H]1N | > 128 µg/mL | > 128 µg/mL | 64 µg/mL | 16 µg/mL | 16 µg/mL | 16 µg/mL | 1 | 16 | 16
